# Test results reported in ChEMBL document CHEMBL1201862, “PubChem BioAssay data set” (2004).
#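 Exposure lasted 48 hours, with cells grown in 96-well plates and compounds tested at five concentrations. At the GI50, growth is halved.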 Activity calls are given as the source filed them. Cut-off read from the data, not from the text of the source: active = GI50 up to about 1.1 µM and inactive = higher.
# What was measured:
# Test in all cases: DTP human tumour cell line panel, 48 h
# [1] = system: MOLT-4
# [2] = system: CCRF-CEM
# [3] = system: SNB-75
# [4] = system: BT-549
# [5] = system: DU-145
# [6] = system: SF-295
# [7] = system: MDA-MB-231
# [8] = system: HOP-62
# [9] = system: LOX IMVI
# [10] = system: HCC 2998
# [11] = system: A549
# [12] = system: TK-10
# [13] = system: SNB-19
# [14] = system: HL-60
# [15] = system: SN12C
# [16] = system: SK-MEL-2
# [17] = system: SK-OV-3
# [18] = system: HOP-92
# [19] = system: SW-620
# [20] = system: U-251
# [21] = system: SF-268
# [22] = system: A498
# [23] = system: OVCAR-3
# [24] = system: MDA-N
# [25] = system: Hs-578T
# [26] = system: M14
# [27] = system: COLO 205
# [28] = system: 786-0
# [29] = system: CAKI-1
# [30] = system: HCT-15
# [31] = system: UACC-257
# [32] = system: UACC-62
# [33] = system: MDA-MB-435
# [34] = system: MCF7
# [35] = system: HCT-116
# [36] = system: HT-29
# [37] = system: OVCAR-5
# [38] = system: SK-MEL-28
# [39] = system: RXF 393
# [40] = system: SK-MEL-5
# [41] = system: EKVX
# [42] = system: KM12
# [43] = system: UO-31
# [44] = system: PC-3
# [45] = system: NCI-H460
# [46] = system: NCI-H23
# [47] = system: Malme-3M
# [48] = system: K562
# [49] = system: NCI/ADR-RES
# [50] = system: OVCAR-8
# [51] = system: SF-539
# [52] = system: T47D
# [53] = system: NCI-H522
# [54] = system: ACHN
# [55] = system: RPMI-8226
# [56] = system: NCI-H226
# [57] = system: IGROV-1
# [58] = system: OVCAR-4
# [59] = system: SR
compound,measurement,setting,value
CC[C@@]12C=CC(=S)N(CCSc3ccccc3)[C@@H]1c1c(n(S(=O)(=O)c3ccc(OC)cc3)c3ccccc13)CC2,GI50,[1],> 100 µM (inactive)
same,GI50,[2],> 100 µM (inactive)
same,GI50,[3],> 100 µM (inactive)
same,GI50,[4],> 100 µM (inactive)
same,GI50,[5],> 100 µM (inactive)
same,GI50,[6],> 100 µM (inactive)
same,GI50,[7],> 100 µM (inactive)
same,GI50,[8],> 100 µM (inactive)
same,GI50,[9],> 100 µM (inactive)
same,GI50,[10],> 100 µM (inactive)
same,GI50,[11],> 100 µM (inactive)
same,GI50,[12],> 100 µM (inactive)
same,GI50,[13],> 100 µM (inactive)
same,GI50,[14],> 100 µM (inactive)
same,GI50,[15],> 100 µM (inactive)
same,GI50,[16],> 100 µM (inactive)
same,GI50,[17],> 100 µM (inactive)
same,GI50,[18],> 100 µM (inactive)
same,GI50,[19],> 100 µM (inactive)
same,GI50,[20],> 100 µM (inactive)
same,GI50,[21],> 100 µM (inactive)
same,GI50,[22],> 100 µM (inactive)
same,GI50,[23],> 100 µM (inactive)
same,GI50,[24],> 100 µM (inactive)
same,GI50,[25],> 100 µM (inactive)
same,GI50,[26],> 100 µM (inactive)
same,GI50,[27],> 100 µM (inactive)
same,GI50,[28],> 100 µM (inactive)
same,GI50,[29],> 100 µM (inactive)
same,GI50,[30],> 100 µM
same,GI50,[31],> 100 µM (inactive)
same,GI50,[32],> 100 µM (inactive)
same,GI50,[33],> 100 µM (inactive)
same,GI50,[34],> 100 µM (inactive)
same,GI50,[35],> 100 µM (inactive)
same,GI50,[36],> 100 µM (inactive)
same,GI50,[37],> 100 µM (inactive)
same,GI50,[38],> 100 µM (inactive)
same,GI50,[39],16.6 µM (inactive)
same,GI50,[40],> 100 µM (inactive)
same,GI50,[41],> 100 µM (inactive)
same,GI50,[42],> 100 µM (inactive)
same,GI50,[43],> 100 µM (inactive)
same,GI50,[44],> 100 µM (inactive)
same,GI50,[45],> 100 µM (inactive)
same,GI50,[46],> 100 µM (inactive)
same,GI50,[47],> 100 µM (inactive)
same,GI50,[48],> 100 µM (inactive)
same,GI50,[49],> 100 µM (inactive)
same,GI50,[50],> 100 µM (inactive)
same,GI50,[51],> 100 µM (inactive)
same,GI50,[52],> 100 µM (inactive)
same,GI50,[53],> 100 µM (inactive)
Cc1nc2ccc(S(=O)(=O)Nc3nccs3)cc2c(=O)n1NS(=O)(=O)c1nccs1,GI50,[1],28.5 µM (inactive)
same,GI50,[2],86.7 µM (inactive)
same,GI50,[3],> 100 µM (inactive)
same,GI50,[4],> 100 µM (inactive)
same,GI50,[5],> 100 µM (inactive)
same,GI50,[6],58.7 µM (inactive)
same,GI50,[7],> 100 µM (inactive)
same,GI50,[8],> 100 µM (inactive)
same,GI50,[10],> 100 µM (inactive)
same,GI50,[12],> 100 µM (inactive)
same,GI50,[13],> 100 µM (inactive)
same,GI50,[14],79.1 µM (inactive)
same,GI50,[15],> 100 µM (inactive)
same,GI50,[16],> 100 µM (inactive)
same,GI50,[17],> 100 µM (inactive)
same,GI50,[18],> 100 µM (inactive)
same,GI50,[19],78.3 µM (inactive)
same,GI50,[20],> 100 µM (inactive)
same,GI50,[21],> 100 µM (inactive)
same,GI50,[22],> 100 µM (inactive)
same,GI50,[23],> 100 µM (inactive)
same,GI50,[24],> 100 µM (inactive)
same,GI50,[54],32 µM (inactive)
same,GI50,[25],> 100 µM (inactive)
same,GI50,[26],> 100 µM (inactive)
same,GI50,[27],> 100 µM (inactive)
same,GI50,[55],> 100 µM (inactive)
same,GI50,[29],> 100 µM (inactive)
same,GI50,[30],> 100 µM
same,GI50,[31],> 100 µM (inactive)
same,GI50,[32],72.9 µM (inactive)
same,GI50,[33],40.3 µM (inactive)
same,GI50,[34],37.4 µM (inactive)
same,GI50,[56],> 100 µM (inactive)
same,GI50,[36],41.5 µM (inactive)
same,GI50,[37],> 100 µM (inactive)
same,GI50,[38],> 100 µM (inactive)
same,GI50,[57],> 100 µM (inactive)
same,GI50,[39],> 100 µM (inactive)
same,GI50,[40],88.7 µM (inactive)
same,GI50,[41],> 100 µM (inactive)
same,GI50,[42],64.9 µM (inactive)
same,GI50,[58],> 100 µM (inactive)
same,GI50,[43],13.7 µM (inactive)
same,GI50,[44],86.9 µM (inactive)
same,GI50,[45],50.2 µM (inactive)
same,GI50,[46],> 100 µM (inactive)
same,GI50,[47],> 100 µM (inactive)
same,GI50,[48],69.7 µM (inactive)
same,GI50,[49],> 100 µM (inactive)
same,GI50,[50],> 100 µM (inactive)
same,GI50,[51],> 100 µM (inactive)
same,GI50,[52],> 100 µM (inactive)
same,GI50,[53],60.8 µM (inactive)
COc1ccc(C(=O)N2CCN(c3ccc4c(c3)OCC(=O)N4)CC2)cc1OC,GI50,[1],> 100 µM (inactive)
same,GI50,[2],> 100 µM (inactive)
same,GI50,[3],> 100 µM (inactive)
same,GI50,[4],> 100 µM (inactive)
same,GI50,[59],> 100 µM (inactive)
same,GI50,[5],> 100 µM (inactive)
same,GI50,[6],> 100 µM (inactive)
same,GI50,[7],> 100 µM (inactive)
same,GI50,[8],> 100 µM (inactive)
same,GI50,[9],> 100 µM (inactive)
same,GI50,[10],> 100 µM (inactive)
same,GI50,[11],> 100 µM (inactive)
same,GI50,[12],> 100 µM (inactive)
same,GI50,[13],> 100 µM (inactive)
same,GI50,[14],> 100 µM (inactive)
same,GI50,[15],> 100 µM (inactive)
same,GI50,[16],> 100 µM (inactive)
same,GI50,[17],> 100 µM (inactive)
same,GI50,[18],> 100 µM (inactive)
same,GI50,[19],> 100 µM (inactive)
same,GI50,[20],> 100 µM (inactive)
same,GI50,[21],> 100 µM (inactive)
same,GI50,[23],> 100 µM (inactive)
same,GI50,[24],> 100 µM (inactive)
same,GI50,[54],> 100 µM (inactive)
same,GI50,[25],> 100 µM (inactive)
same,GI50,[26],> 100 µM (inactive)
same,GI50,[27],> 100 µM (inactive)
same,GI50,[28],> 100 µM (inactive)
same,GI50,[55],> 100 µM (inactive)
same,GI50,[30],> 100 µM
same,GI50,[31],> 100 µM (inactive)
same,GI50,[32],> 100 µM (inactive)
same,GI50,[33],> 100 µM (inactive)
same,GI50,[34],> 100 µM (inactive)
same,GI50,[56],> 100 µM (inactive)
same,GI50,[35],> 100 µM (inactive)
same,GI50,[36],> 100 µM (inactive)
same,GI50,[37],52 µM (inactive)
same,GI50,[38],> 100 µM (inactive)
same,GI50,[57],> 100 µM (inactive)
same,GI50,[40],> 100 µM (inactive)
same,GI50,[41],> 100 µM (inactive)
same,GI50,[42],> 100 µM (inactive)
same,GI50,[58],38.1 µM (inactive)
same,GI50,[43],> 100 µM (inactive)
same,GI50,[44],> 100 µM (inactive)
same,GI50,[45],> 100 µM (inactive)
same,GI50,[46],> 100 µM (inactive)
same,GI50,[47],> 100 µM (inactive)
same,GI50,[49],> 100 µM (inactive)
same,GI50,[50],> 100 µM (inactive)
same,GI50,[51],> 100 µM (inactive)
same,GI50,[52],54.3 µM (inactive)
same,GI50,[53],71.1 µM (inactive)
